Source: PubChem BioAssay AID194 (DTP/NCI, 2004)
“And” between values parts separate entries of the source, which are not always exact repeats. Equal values may be shown once. Results filed as inconclusive are left out.

Test system: BDF1 mice, B16 melanoma s.c., survival/tumor T/C
Experiment: NCI In Vivo Anticancer Drug Screen. Data for tumor model B16 Melanoma (subcutaneous) in B6D2F1 (BDF1) mice
Procedure: The antitumor activity of compounds was measured in mice bearing transplantable tumors. Survival or tumor size were measured and the results are expressed as the measurement made in the treated group (T) divided by the measurement made in the vehicle treated control group (C). The tumor model used in this assay is B16 Melanoma (subcutaneous) in B6D2F1 (BDF1) mice

[1] = endpoint: median survival time, dose: 0.5 mg/kg/injection, schedule: Q01DX009 (ip), vehicle: saline, higher = longer survival
[2] = endpoint: median survival time, dose: 1.0 mg/kg/injection, schedule: Q01DX009 (ip), vehicle: saline, higher = longer survival
[3] = endpoint: median survival time, dose: 2.0 mg/kg/injection, schedule: Q01DX009 (ip), vehicle: saline, higher = longer survival
[4] = endpoint: median survival time, dose: 4.0 mg/kg/injection, schedule: Q01DX009 (ip), vehicle: saline, higher = longer survival

CC[CH2][Sn]([CH2]CC)([CH2]CC)[O][Sn]([CH2]CC)([CH2]CC)[CH2]CC
T/C [1]: 123 % of control | T/C [2]: 114 % of control | T/C [3]: 100 % of control

O=C1C(=O)c2ccccc2C(O)=C1CC=C(Cl)Cl
T/C (endpoint: median survival time, dose: 8.0 mg/kg/injection, schedule: Q01DX009 (ip), vehicle: saline + alcohol, higher = longer survival): 87 % of control | T/C (endpoint: median survival time, dose: 16.0 mg/kg/injection, schedule: Q01DX009 (ip), vehicle: saline + alcohol, higher = longer survival): 109 % of control | T/C (endpoint: median survival time, dose: 32.0 mg/kg/injection, schedule: Q01DX009 (ip), vehicle: saline + alcohol, higher = longer survival): 77 % of control | T/C (endpoint: median tumor weight (est.), dose: 12.5 mg/kg/injection, schedule: Q01DX009 (ip), vehicle: Klucel (hydroxypropylcellulose) (HPC), higher = larger tumour): 94 % of control and 104 % of control and 108 % of control | T/C (endpoint: median tumor weight (est.), dose: 50.0 mg/kg/injection, schedule: Q01DX009 (ip), vehicle: Klucel (hydroxypropylcellulose) (HPC), higher = larger tumour): 53 % of control and 55 % of control and 64 % of control

N[C@@H](Cc1ccc(N(CCCl)CCCl)cc1)C(=O)O
T/C [2]: 93 % of control | T/C [3]: 150 % of control | T/C [4]: 123 % of control | T/C (endpoint: median tumor weight (est.), dose: 1.25 mg/kg/injection, schedule: Q01DX009 (ip), vehicle: Klucel (hydroxypropylcellulose) (HPC), higher = larger tumour): 63 % of control | T/C (endpoint: median tumor weight (est.), dose: 2.5 mg/kg/injection, schedule: Q01DX009 (ip), vehicle: Klucel (hydroxypropylcellulose) (HPC), higher = larger tumour): 44 % of control | T/C (endpoint: median tumor weight (est.), dose: 5.0 mg/kg/injection, schedule: Q01DX009 (ip), vehicle: Klucel (hydroxypropylcellulose) (HPC), higher = larger tumour): 18 % of control

O=[N+]([O-])c1nccn1CC(O)CO (stereo not given)
T/C (endpoint: median survival time, dose: 1000.0 mg/kg/injection, schedule: Q01DX001 (ip), vehicle: saline, higher = longer survival): 91 % of control | T/C (endpoint: median survival time, dose: 2500.0 mg/kg/injection, schedule: Q01DX001 (ip), vehicle: saline, higher = longer survival): 85 % of control

CN(N=O)C(=O)N[C@@H](C=O)[C@@H](O)[C@H](O)[C@H](O)CO
T/C (endpoint: median survival time, dose: 20.0 mg/kg/injection, schedule: Q01DX009 (ip), vehicle: other, higher = longer survival): 113 % of control | T/C (endpoint: median survival time, dose: 40.0 mg/kg/injection, schedule: Q01DX009 (ip), vehicle: other, higher = longer survival): 123 % of control | T/C (endpoint: median survival time, dose: 80.0 mg/kg/injection, schedule: Q01DX009 (ip), vehicle: other, higher = longer survival): 106 % of control

COC(=O)[C@@H]1c2cc3c(c(O)c2[C@@H](OC2OC(C)C(OC)C(C)(OC)C2OC)C[C@]1(C)O)C(=O)c1c(O)cc2c(c1C3=O)O[C@H]1O[C@]2(C)[C@H](O)[C@@H](N(C)C)[C@@H]1O (stereo not given in full)
T/C (endpoint: median survival time, dose: 0.5 mg/kg/injection, schedule: Q01DX009 (ip), vehicle: other, higher = longer survival): 90 % of control | T/C (endpoint: median survival time, dose: 125.0 micrograms/kg/injection, schedule: Q01DX009 (ip), vehicle: saline + alcohol, higher = longer survival): 118 % of control | T/C (endpoint: median survival time, dose: 500.0 micrograms/kg/injection, schedule: Q01DX009 (ip), vehicle: saline + alcohol, higher = longer survival): 118 % of control | T/C (endpoint: median survival time, dose: 1000.0 micrograms/kg/injection, schedule: Q01DX009 (ip), vehicle: saline + alcohol, higher = longer survival): 109 % of control

Cc1cc(NC(=O)NCc2ccc(N3C(N)=NC(N)=NC3(C)C)cc2)ccc1S(=O)(=O)F
T/C (endpoint: median survival time, dose: 50.0 mg/kg/injection, schedule: Q04DX003 (ip), vehicle: saline, higher = longer survival): 106 % of control | T/C (endpoint: median survival time, dose: 100.0 mg/kg/injection, schedule: Q04DX003 (ip), vehicle: saline, higher = longer survival): 95 % of control

CC1(C)CC(O)(C(Cl)c2ccccc2)C(=O)c2ccccc21 (stereo not given)
T/C (endpoint: median survival time, dose: 88.0 mg/kg/injection, schedule: Q01DX009 (ip), vehicle: distilled water + Tween-80, higher = longer survival): 96 % of control | T/C (endpoint: median survival time, dose: 133.0 mg/kg/injection, schedule: Q01DX009 (ip), vehicle: distilled water + Tween-80, higher = longer survival): 97 % of control | T/C (endpoint: median survival time, dose: 200.0 mg/kg/injection, schedule: Q01DX009 (ip), vehicle: distilled water + Tween-80, higher = longer survival): 93 % of control | T/C (endpoint: median survival time, dose: 300.0 mg/kg/injection, schedule: Q01DX009 (ip), vehicle: distilled water + Tween-80, higher = longer survival): 89 % of control | T/C (endpoint: median tumor weight (est.), dose: 133.0 mg/kg/injection, schedule: Q01DX009 (ip), vehicle: distilled water + Tween-80, higher = larger tumour): 71 % of control | T/C (endpoint: median tumor weight (est.), dose: 200.0 mg/kg/injection, schedule: Q01DX009 (ip), vehicle: distilled water + Tween-80, higher = larger tumour): 106 % of control | T/C (endpoint: median tumor weight (est.), dose: 300.0 mg/kg/injection, schedule: Q01DX009 (ip), vehicle: distilled water + Tween-80, higher = larger tumour): 91 % of control

O=C1c2ccccc2C(=O)c2c(NCCNCCO)ccc(NCCNCCO)c21
T/C (endpoint: median survival time, dose: 0.5 mg/kg/injection, schedule: Q01DX009 (ip), vehicle: saline with Tween-80, higher = longer survival): 106 % of control and 119 % of control | T/C [1]: 111 % of control | T/C (endpoint: median survival time, dose: 1.0 mg/kg/injection, schedule: Q01DX009 (ip), vehicle: saline with Tween-80, higher = longer survival): 93 % of control and 115 % of control | T/C [2]: 104 % of control and 110 % of control | T/C (endpoint: median survival time, dose: 1.0 mg/kg/injection, schedule: Q02DX009 (ip), vehicle: saline, higher = longer survival): 100 % of control | T/C (endpoint: median survival time, dose: 2.0 mg/kg/injection, schedule: Q01DX009 (ip), vehicle: saline with Tween-80, higher = longer survival): 101 % of control and 108 % of control | T/C [3]: 100 % of control and 104 % of control and 107 % of control | T/C [4]: 92 % of control | T/C (endpoint: median survival time, dose: 4.0 mg/kg/injection, schedule: Q02DX009 (ip), vehicle: Klucel (hydroxypropylcellulose) (HPC), higher = longer survival): 94 % of control | T/C (endpoint: median survival time, dose: 4.0 mg/kg/injection, schedule: Q02DX009 (ip), vehicle: saline, higher = longer survival): 154 % of control | T/C (endpoint: median survival time, dose: 8.0 mg/kg/injection, schedule: Q01DX009 (ip), vehicle: Klucel (hydroxypropylcellulose) (HPC), higher = longer survival): 104 % of control | T/C (endpoint: median survival time, dose: 8.0 mg/kg/injection, schedule: Q01DX009 (ip), vehicle: saline, higher = longer survival): 107 % of control | T/C (endpoint: median survival time, dose: 8.0 mg/kg/injection, schedule: Q02DX009 (ip), vehicle: Klucel (hydroxypropylcellulose) (HPC), higher = longer survival): 117 % of control | T/C (endpoint: median survival time, dose: 8.0 mg/kg/injection, schedule: Q02DX009 (ip), vehicle: saline, higher = longer survival): 110 % of control | T/C (endpoint: median survival time, dose: 8.0 mg/kg/injection, schedule: Q02DX009 (ip), vehicle: water, higher = longer survival): 107 % of control | T/C (endpoint: median survival time, dose: 13.0 mg/kg/injection, schedule: Q01DX009 (ip), vehicle: Klucel (hydroxypropylcellulose) (HPC), higher = longer survival): 104 % of control | T/C (endpoint: median survival time, dose: 16.0 mg/kg/injection, schedule: Q01DX009 (ip), vehicle: Klucel (hydroxypropylcellulose) (HPC), higher = longer survival): 152 % of control | T/C (endpoint: median survival time, dose: 16.0 mg/kg/injection, schedule: Q01DX009 (ip), vehicle: saline, higher = longer survival): 117 % of control | T/C (endpoint: median survival time, dose: 16.0 mg/kg/injection, schedule: Q02DX009 (ip), vehicle: Klucel (hydroxypropylcellulose) (HPC), higher = longer survival): 113 % of control | T/C (endpoint: median survival time, dose: 16.0 mg/kg/injection, schedule: Q02DX009 (ip), vehicle: water, higher = longer survival): 95 % of control and 106 % of control | T/C (endpoint: median survival time, dose: 43.0 mg/kg/injection, schedule: Q04DX003 (ip), vehicle: Klucel (hydroxypropylcellulose) (HPC), higher = longer survival): 97 % of control | T/C (endpoint: median survival time, dose: 74.0 mg/kg/injection, schedule: Q01DX001 (ip), vehicle: Klucel (hydroxypropylcellulose) (HPC), higher = longer survival): 91 % of control | T/C (endpoint: median tumor weight (est.), dose: 13.0 mg/kg/injection, schedule: Q01DX009 (ip), vehicle: Klucel (hydroxypropylcellulose) (HPC), higher = larger tumour): 64 % of control | T/C (endpoint: median tumor weight (est.), dose: 43.0 mg/kg/injection, schedule: Q04DX003 (ip), vehicle: Klucel (hydroxypropylcellulose) (HPC), higher = larger tumour): 52 % of control

Cn1c(CCCC(=O)O)nc2cc(N(CCCl)CCCl)ccc21
T/C (endpoint: median survival time, dose: 2.5 mg/kg/injection, schedule: Q01DX009 (ip), vehicle: saline, higher = longer survival): 120 % of control | T/C (endpoint: median survival time, dose: 5.0 mg/kg/injection, schedule: Q01DX009 (ip), vehicle: saline, higher = longer survival): 98 % of control | T/C (endpoint: median survival time, dose: 10.0 mg/kg/injection, schedule: Q01DX009 (ip), vehicle: saline, higher = longer survival): 96 % of control

NC(=O)c1[nH]nc(C2OC(CO)C(O)C2O)c1O (stereo not given)
T/C (endpoint: median survival time, dose: 0.12 mg/kg/injection, schedule: Q01DX009 (ip), vehicle: saline, higher = longer survival): 108 % of control | T/C (endpoint: median survival time, dose: 0.25 mg/kg/injection, schedule: Q01DX009 (ip), vehicle: saline, higher = longer survival): 109 % of control | T/C [1]: 106 % of control | T/C (endpoint: median survival time, dose: 0.67 mg/kg/injection, schedule: Q01DX009 (ip), vehicle: saline, higher = longer survival): 102 % of control | T/C (endpoint: median survival time, dose: 1.25 mg/kg/injection, schedule: Q01DX009 (ip), vehicle: saline, higher = longer survival): 87 % of control

COC(=O)Nc1cccc(-c2nc3ccc(NC(=O)OC)cc3c(=O)n2-c2ccccc2)c1
T/C (endpoint: median survival time, dose: 50.0 mg/kg/injection, schedule: Q04DX005 (ip), vehicle: other, higher = longer survival): 99 % of control | T/C (endpoint: median survival time, dose: 100.0 mg/kg/injection, schedule: Q04DX005 (ip), vehicle: other, higher = longer survival): 115 % of control | T/C (endpoint: median survival time, dose: 100.0 mg/kg/injection, schedule: Q04DX005 (oral), vehicle: other, higher = longer survival): 102 % of control | T/C (endpoint: median survival time, dose: 200.0 mg/kg/injection, schedule: Q04DX005 (oral), vehicle: other, higher = longer survival): 94 % of control

O=C1CSC(=S)N1c1ccco1
T/C (endpoint: median survival time, dose: 50.0 mg/kg/injection, schedule: Q01DX009 (ip), vehicle: Klucel (hydroxypropylcellulose) (HPC), higher = longer survival): 111 % of control | T/C (endpoint: median survival time, dose: 400.0 mg/kg/injection, schedule: Q01DX009 (ip), vehicle: Klucel (hydroxypropylcellulose) (HPC), higher = longer survival): 118 % of control
